Test results taken from patent publication US4296206A, “Irreversible anti-glucocorticoids” (United States of America, priority 1980, dated 1981).
“And” between values parts separate entries of the source, which are not always exact repeats. Equal values may be shown once. “Also recorded” adds a separate entry of the source.

Assays:
[1] = test system: tyrosine aminotransferase (TAT) induction in HTC cells; assay: induction of tyrosine aminotransferase (TAT) in whole HTC cells; type: cell-based, rat
Description: (§1) Ir (nujol) ~3400. 1733, 1659, 1359, 1170 cm^-1. […] 59.98; H. 7.32; S. 7.28.
HTC cells display several biological responses to glucocorticoids. Tyrosine aminotransferase (TAT) is one specific, glucocorticoid inducible enzyme in HTC cells; and previous extensive studies argue that TAT induction in HTC cells is a primary response to glucocorticoids that is initiated by the binding of steroid to a specific, cytoplasmic receptor. […] The basal level of TAT activity is shown by the dashed line.

[2] = target: T1, dexamethasone induction of TAT in HTC cells (Rattus norvegicus, UniProt P06536); assay: TAT induction after pre-treatment of HTC cells and washing (reversibility); type: cell-based; settings: for reversal of pre-incubation effect on dexamethasone induction of TAT by washing the cells: pre-incubation overnight, wash, then 2×10^-8 M dexamethasone
T1 construct: endogenous in cells; host or cells: HTC (rat hepatoma tissue culture) cells, whole, monolayer or spinner cultures
T1 sequence (P06536 1-795): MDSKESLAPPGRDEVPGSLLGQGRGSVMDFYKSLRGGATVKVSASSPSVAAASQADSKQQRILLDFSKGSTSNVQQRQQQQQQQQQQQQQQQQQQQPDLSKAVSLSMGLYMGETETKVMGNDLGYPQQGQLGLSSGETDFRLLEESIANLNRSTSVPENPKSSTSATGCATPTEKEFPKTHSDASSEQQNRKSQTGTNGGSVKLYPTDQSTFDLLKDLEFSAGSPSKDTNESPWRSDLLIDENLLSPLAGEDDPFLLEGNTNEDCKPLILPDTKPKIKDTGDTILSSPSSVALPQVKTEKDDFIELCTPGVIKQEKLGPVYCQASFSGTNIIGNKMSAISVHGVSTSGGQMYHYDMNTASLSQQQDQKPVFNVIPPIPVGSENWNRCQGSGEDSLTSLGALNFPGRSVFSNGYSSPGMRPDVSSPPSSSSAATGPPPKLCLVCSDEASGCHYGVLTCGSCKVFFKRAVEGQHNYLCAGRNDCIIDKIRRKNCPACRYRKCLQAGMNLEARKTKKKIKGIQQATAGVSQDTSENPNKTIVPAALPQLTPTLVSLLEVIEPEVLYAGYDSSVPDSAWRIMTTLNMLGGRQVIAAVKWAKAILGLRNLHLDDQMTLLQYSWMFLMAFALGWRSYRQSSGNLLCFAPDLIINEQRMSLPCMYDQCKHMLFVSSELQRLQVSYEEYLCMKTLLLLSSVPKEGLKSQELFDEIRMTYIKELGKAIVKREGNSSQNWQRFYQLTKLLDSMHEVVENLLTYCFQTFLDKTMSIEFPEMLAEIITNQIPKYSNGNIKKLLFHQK
Method: One approach to establishing CM as an irreversible inhibitor of TAT induction by glucocorticoids is to determine whether the effects of CM can be reversed by washing the cells.
After incubation at 37°/15 1/2 hrs, ~6×10^7 cells were centrifuged at 600 xg/10 min/22°and resuspended in 200 ml of "conditioned" medium that had also been "incubated" at 37°/15 1/2 hrs. After a second centrifugation, each cell pellet was again resuspended in 210 ml of "conditioned" medium. […] The cells in Wheaton bottles were incubated in a rotating water bath (37°/175 rpm) with 3 ml aliquots being removed at various time points for protein and TAT determinations in the usual manner.

[3] = target: T2, HTC cell glucocorticoid receptors (Rattus norvegicus, UniProt P06536); assay: cell-free exchange assay (3H-dexamethasone exchange binding to pre-formed complexes); settings: for effect of pre-incubation of steroid-free receptors on subsequent exchange-binding of 3H-dexamethasone: cell-free
T2 construct: crude receptors from a well characterized line of rat hepatoma tissue culture (HTC) cells; endogenous in cells; host or cells: HTC (rat hepatoma tissue culture) cells, crude cytosol
T2 sequence (P06536 1-795): T1 sequence (P06536 1-795)
Method: as §1
To examine this possibility in more detail, a determination was made as to whether the cell-free binding of CM to HTC cell receptors is reversible. Using the previously described exchange assay, crude HTC cell receptors were incubated with enough cortisol, or CM, to occupy ~75% of the receptor based on data of FIG. 1. After ~3 hrs, activated charcoal was added to remove free steroid and to inactivate steroid-free receptors. An excess of ^3 H-dexamethasone was then added to exchange-bind to the previously formed receptor-steroid complexes. […] Thus CM is an irreversible inhibitor of one aspect of glucocorticoid action in broken cells, i.e., the ability of glucocorticoids to exchange-bind to receptor-glucocorticoid complexes.
FIG. 5 is based on data obtained in studying inhibition of ^3 H-dexamethasone exchange binding to pre-formed complexes by cortisol-21-mesylate. Using the previously described exchange assay, crude HTC cell receptors were pre-incubated with 6×10^-8 M cortisol or 1.35×10^-6 M CM for 2.8 hrs at 0° (final protein concentration=7.0 mg/ml). After addition of activated charcoal to remove free steroid, and to inactivate steroid-free receptors, followed by centrifugation to pellet the activated charcoal, the pre-incubated cytosols were adjusted to 1.9×10^-8 M ^3 H-dexamethasone ±1.1×10^-5 M ^1 H-dexamethasone. After subsequent incubation for the indicated time, activated charcoal was again added to determine the amount of specifically bound ^3 H-dexamethasone (=total-non-specific binding) that was formed by exchange binding in cortisol or CM pre-incubated cytosols. For comparison, the amount of non-specific binding in cortisol or CM pre-incubated receptor solutions is shown in dashed lines.

[4] = target: T1, dexamethasone induction of TAT in HTC cells; assay: inhibition of dexamethasone induction of TAT activity in whole HTC cells; type: cell-based
Method: as §1
Alternatively, CM could be a anti-inducer, or inhibitor of glucocorticoid action. […] After the usual incubation (18 hrs/37°) and work-up, the specific enzyme activity of TAT was plotted against the concentration of that steroid present in varying amounts. The range of each duplicate determination is shown by error bars when it exceeds the area of the data points. The basal level of TAT activity is indicated by the dashed line.

[5] = cell toxicity in HTC cells (protein content, cell number, trypan blue exclusion); settings: rat
rats = assay: experiment with rats, daily intraperitoneal injections; type: in vivo, rat
Description: In the experiments and uses of CM and DM described above, the toxicity of either compound was negligible. […] In order to be more useful in animals and people, two approaches can be used to reduce this toxicity. […] Second, alternative routes of administration (e.g., oral, intravenous, intramuscular and subcutaneous) might be less toxic.

in vitro = settings: rat, htc cells
[6] = target: T2, HTC cell glucocorticoid receptors; assay: cell-free competition assay with 3H-dexamethasone, crude HTC cell receptors; type: binding
Description: as §1
In general, the introduction of bulky substituents on the C21 of glucocorticoids results in derivatives with a reduced affinity for glucocorticoid receptors as described, for example, in Failla, D. et al., Proc. Nat. Acad. Sci. USA, 72, 3849-3852 (1975). […] The data for FIG. 1 was obtained from a determination of relative affinities of cortisol and cortisol-21-mesylate for HTC cell glucocorticoid receptors in a cell-free competition assay. Duplicate crude HTC cell receptor solutions were incubated for 3 hrs at 0° with 5.6×10^-9 M ^3 H-dexamethasone and varying concentrations of cortisol, or CM (final protein concentration=5.1 mg/ml). A 500 fold excess of ^1 H-dexamethasone was used to determine the level of non-specific binding of ^3 H-steroid. The average specifically bound ^3 H-dexamethasone in the presence of varying concentrations of cortisol or CM was plotted as % of the uncompeted control (variation less than ±4%).

Structure (SMILES): C[C@]12CCC(=O)C=C1CC[C@@H]1[C@@H]2[C@@H](O)C[C@@]2(C)[C@H]1CC[C@]2(O)C(=O)COS(C)(=O)=O [CM, 4-pregnene-11β, 17α, 21-triol-3, 20-dione-21-methanesulfonate]
- effect on cell number (HTC cells): no effect
- effect on total cell protein (HTC cells): ~1% increase to 6% decrease
- induction of TAT in whole HTC cells ([1]; 18 hrs at 37°): completely inactive; also recorded: does not induce TAT
- magnitude of TAT induction 24 hrs after the wash procedure in pre-treated, post-dexamethasone treated cells ([2]; 24 hrs after wash): significantly reduced; also recorded: only partial induction
- appearance of TAT in pre-treated cells, delay after TAT induction in EtOH or progesterone pre-treated cells ([2]; average of three experiments): 2.7 h
- time without TAT induction after the wash procedure in pre-treated, post-dexamethasone treated cells ([2]; pre-CM, post-dexamethasone): ~ 8 hrs and 6-8 hrs
- reversal of pre-incubation effect on dexamethasone induction of TAT by washing the cells [2]: can not reverse; also recorded: cannot be reversed by washing the cells
- effect of pre-incubation of steroid-free receptors on subsequent exchange-binding of 3H-dexamethasone [3]: inhibits
- inhibition at 1.35 µM ([3]; pre-incubation 1.35×10^-6 M CM, ~3 hrs at 0°, read-out: reduction of the ability of receptors to exchange-bind 3H-dexamethasone): ~75%
- Ki [4]: ~100 nM
- inhibition of TAT induction by dexamethasone in whole cells [4]: potent inhibitors
- TAT induction by 2×10^-8 M dexamethasone in the presence of the compound ([4]; 1.3×10^-6 M CM): slight but significant increase in TAT
- TAT induction by 10^-7 M cortisol in the presence of the compound ([4]; 1.3×10^-6 M CM): unable to induce TAT
- duration of activity as anti-glucocorticoid in HTC cell cultures ([4]; 37°, tissue culture): ~ 18 hrs and 17-18 hrs
- time after which no longer completely inhibitory (some inducibility of TAT returns) ([4]; HTC cells): about 24 hr
- cytotoxicity at 13 µM [5]: 12%
- viability [5]: 93 to 94%
- anti-glucocorticoid activity in rats (rats; daily intraperitoneal injections of 10-50 mg per kilogram): some anti-glucocorticoid activity
- toxicity in rats at higher doses (rats; ≥100 mg/kilogram, intraperitoneal): peritonitis and death
- cytotoxicity (in vitro): 20%
- cell-free affinity for the glucocorticoid receptors of HTC cells [6]: low but significant
- affinity for glucocorticoid receptors, fold lower than that of the parent steroid cortisol ([6]; 3 hrs at 0°, 5.6×10^-9 M 3H-dexamethasone, crude HTC cell receptors): 15 fold
- apparent Kd with HTC cell glucocorticoid receptors, times greater than the Kd of cortisol ([6]; CM): 15 times

Structure (SMILES): C[C@@H]1C[C@H]2[C@@H]3CCC4=CC(=O)C=C[C@]4(C)[C@@]3(F)[C@@H](O)C[C@]2(C)[C@@]1(O)C(=O)COS(C)(=O)=O [DM, 16α-methyl-9α-fluoro-1,4-pregnadiene-11β, 17α, 21-triol-3, 20-dione-21-methane-sulfonate]
- Emax ([1]; Rattus norvegicus, whole HTC cells, read-out: induction of TAT in HTC cells, % of full induction): ~25%
- reversal of pre-incubation effect on dexamethasone induction of TAT by washing the cells [2]: cannot be reversed by washing the cells
- effect of pre-incubation of steroid-free receptors on subsequent exchange-binding of 3H-dexamethasone [3]: inhibits
- inhibition of TAT induction by dexamethasone in whole cells [4]: potent inhibitors
- cell-free affinity for the glucocorticoid receptors of HTC cells [6]: low but significant
- affinity for cell free receptors, fold higher than CM ([6]; cell free receptors): approximately 10 fold
